This test concerns human PBMCs. As to the kind of experiment: Human PBMC TNF-α response to endotoxin (ELISA). The settings on record: 0.1 μg/ml LPS 16 h, read-out: EC50 for the inhibition of the human PBMC TNF-α response to endotoxin, ave. ± S.D. The format is cell-based. How it is done:
Human PBMCs (Astarte Biologics, Redmond, Wash.) were seeded at 2e6 cells/ml in RPMI 1640 containing 10% (v/v) charcoal-dextran treated, heat inactivated FBS (Omega Scientific, Tarzana, Calif.), 0.05 mM 2-Mercaptoethanol (Sigma-Aldrich, St. Louis, Mo.), and 1×Pen/Strep Amphotericin B (Lonza, Allendale, N.J.). Cells were pre-treated with test compounds (10 μM down by ⅕ in a 4-point serial dilution series) for 1 h at 37° C. in a humidified atmosphere at 5% CO2. Cells were then stimulated with 0.1 μg/ml lipopolysaccharide (LPS) from E. coli 0111:B4 (EMD Millipore, Billerica, Mass.) for 16 h at 37° C. in a humidified atmosphere at 5% CO2. Supernatant was collected and a 25-fold dilution was analyzed for TNF-α concentration using an ELISA kit from Life Technologies (Grand Island, N.Y.) according to the manufacturer's instructions. Absorbance at 450 nm was read using the Synergy 2 multi-detection microplate reader (BioTek Instruments, Winooski, Vt.).
Take `CCOc1cc(C(=O)N(C)C)ccc1Nc1cc2c(cn1)N(C)C(=O)c1ccccc1N2C` [Compound 117]: the EC50 was 1.49 µM.

As for `CCN(CC)CCN(C)C(=O)c1ccc(OC)c(Nc2cc3c(cn2)N(C)C(=O)c2ccccc2N3C)c1` [Compound 118], the EC50 amounted to 3.32 µM.

For `CCN(CC)CCN(C)C(=O)c1cccc(Nc2cc3c(cn2)N(C)C(=O)c2ccccc2N3C)c1OC` [Compound 119], the EC50 worked out at 3.96 µM.

For the compound `CCOc1cc(C(=O)N(CCO)CCO)ccc1Nc1cc2c(cn1)N(C)C(=O)c1ccccc1N2C` [Compound 121], the EC50 is 0.95 µM.

With `CCOc1cc(C(=O)N2CC[C@@H](NC3CCN(C)CC3)C2)ccc1Nc1cc2c(cn1)N(C)C(=O)c1ccccc1N2C` [Compound T60], the EC50 came out at 0.95 µM.

In the case of `CCOc1cc(C(=O)N[C@H]2CC[C@H](O)CC2)ccc1Nc1cc2c(cn1)N(C)C(=O)c1ccccc1S2` [Compound T90], the EC50 is above 15 µM.

Regarding `CCOc1cc(C(=O)N[C@H]2CC[C@H](O)CC2)ccc1Nc1cc2c(cn1)N(C)C(=O)c1ccccc1S2(=O)=O` [Compound T91], the EC50 is above 15 µM.

`CCOc1cc(C(=O)N2CCN(C3CCN(C)CC3)CC2)ccc1Nc1cc2c(cn1)N(C)C(=O)c1ccccc1S2(=O)=O` [Compound T101]: the EC50 is above 15 µM.

As for `CN1C(=O)c2ccccc2N(C)c2cc(NC3CCCCC3O)ncc21` (centres unmarked) [Compound T108], the EC50 turned out to be 3.01 µM.

Regarding `CN1C(=O)c2ccccc2N(C)c2cc(N[C@@H]3CCCCC3O)ncc21` (some centres unmarked) [Compound T109], the EC50 is 2.16 µM.

In the case of `CN1C(=O)c2ccccc2N(C)c2cc(N[C@@H]3CCC[C@H](O)C3)ncc21` [Compound T111], the EC50 stood at 1.92 µM.

Turning to `CCO[C@@H]1CCCC[C@H]1Nc1cc2c(cn1)N(C)C(=O)c1ccccc1N2C` [Compound T112], the EC50 worked out at 2.36 µM.

`Cc1cccc2c1N(C)c1cc(N[C@H]3CC[C@H](O)CC3)ncc1N(C)C2=O` [Compound T121]: the EC50 was determined as 2.99 µM.

Regarding `CN1C(=O)c2ccccc2N(C)c2cc(N[C@H]3CC[C@@](C)(O)CC3)ncc21` [Compound T123], the EC50 turned out to be 2.1 µM.

Take `CN1C(=O)c2ccccc2N(C)c2cc(NC3CCN(S(=O)(=O)CCN4CCCC4)CC3)ncc21` [Compound T130]: the EC50 was 2.46 µM.

Consider `CN1C(=O)c2ccccc2N(C)c2cc(N[C@H]3C[C@@H](O)C3)ncc21` [Compound T131], for which the EC50 turned out to be 6.06 µM.

With `CN1C(=O)c2ccccc2N(C)c2cc(N[C@@H]3CC[C@@H](O)C3)ncc21` [Compound T132], the EC50 stood at 3.28 µM.

In the case of `CN1C(=O)c2ccccc2N(C)c2cc(N[C@H]3CC[C@H](N)C3)ncc21` [Compound T133], the EC50 turned out to be 9.84 µM.

With `CN1C(=O)c2ccccc2N(C)c2cc(N[C@H]3CC[C@@H](O)C3)ncc21` [Compound T134], the EC50 was 3.68 µM.

With `CN1C(=O)c2ccccc2N(C)c2cc(N[C@H]3C[C@H](N)C3)ncc21` [Compound T135], the EC50 was 9.2 µM.
